Assay results reported in patent US11673894B2, “Imidazopyrimidines and triazolopyrimidines as A2A / A2B inhibitors” (Incyte Corporation, priority 2018, dated 2023).

Key:
Adenosine A2A receptor = Adenosine A2A receptor (Homo sapiens (Human), UniProt P29274); experiment: A2A Tag-lite HTRF Assay; conditions: Tag-lite Adenosine A2A labeled cells; A2A Receptor Red antagonist fluorescent ligand 12.5 nM; one-site competitive binding model; read-out: A2A_Ki
Excerpt: The final concentration of DMSO was 1%.

[1] = biological target: human adenosine A2B receptor (Homo sapiens (Human), UniProt P29275); experiment: Adenosine A2B Receptor Cyclic AMP GS Assay; type: cell-based; conditions: HEK-293 cells expressing human A2B receptor; agonist NECA at 12 nM; cAMP accumulation (FRET); read-out: A2B_cAMP_EC50
Sequence of human adenosine A2B receptor (P29275 whole entry): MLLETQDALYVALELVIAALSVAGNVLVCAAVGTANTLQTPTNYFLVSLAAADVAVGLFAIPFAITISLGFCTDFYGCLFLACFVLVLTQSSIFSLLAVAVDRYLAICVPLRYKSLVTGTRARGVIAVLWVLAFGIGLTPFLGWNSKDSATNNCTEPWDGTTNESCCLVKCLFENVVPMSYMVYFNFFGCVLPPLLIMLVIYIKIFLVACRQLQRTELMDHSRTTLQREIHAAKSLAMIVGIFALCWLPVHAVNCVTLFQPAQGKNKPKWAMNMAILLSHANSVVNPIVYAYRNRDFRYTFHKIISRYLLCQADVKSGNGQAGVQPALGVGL
Method: Stably transfected HEK-293 cells expressing the human adenosine A2B receptor (Perkin Elmer) were maintained in MEM culture medium with 10% FBS and 100 μg/ml Geneticin (Life Technologies). 18 to 24 hours prior to assay, geneticin was removed from culture. The cisbio cAMP-GS Dynamic kit utilizing the FRET (Fluorescence Resonance Energy Transfer) technology was used to measure cAMP accumulation in the cells. Compounds of the present disclosure at an appropriate concentration were mixed with 10000 cells/well in white 96 well half area plates (Perkin Elmer) for 30 min at RT gently shaking. Agonist, NECA (R&D Technologies) at 12 nM was added to each well for 60 min at RT gently shaking. Detection reagents, d2-labeled cAMP (acceptor) and anti-cAMP cryptate (donor) were added to each well for 60 min at RT gently shaking. Plates were read on Pherastar (BMG Labtech), fluorescence ratio 665/620 was calculated and EC50 determination was performed by fitting the curve of percent of control versus the log of the compound concentration using GraphPad Prism.

Sequence of Adenosine A2A receptor (P29274 whole entry): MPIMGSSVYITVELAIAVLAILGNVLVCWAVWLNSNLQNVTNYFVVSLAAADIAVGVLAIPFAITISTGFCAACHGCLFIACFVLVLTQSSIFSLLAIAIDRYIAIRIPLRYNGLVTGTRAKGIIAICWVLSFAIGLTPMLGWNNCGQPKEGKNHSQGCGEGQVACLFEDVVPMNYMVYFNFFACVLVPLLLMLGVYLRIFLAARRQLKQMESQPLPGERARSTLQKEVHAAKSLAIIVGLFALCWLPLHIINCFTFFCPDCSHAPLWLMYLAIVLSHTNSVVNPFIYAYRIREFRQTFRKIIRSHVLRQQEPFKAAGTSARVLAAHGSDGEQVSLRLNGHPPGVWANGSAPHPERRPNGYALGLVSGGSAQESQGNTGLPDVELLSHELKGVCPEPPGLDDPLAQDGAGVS

| Ki (Adenosine A2A receptor) [µM] | EC50 [1] [µM] | SMILES |
| --- | --- | --- |
| < 0.01 | 0.01 to 0.1 | CCNC(=O)c1cn2c(N)nc(-c3cccc(C#N)c3)c(-c3ccnc4c3OCCO4)c2n1 [Example 39, 5-Amino-7-(3-cyanophenyl)-8-(2,3-dihydro-[1,4]dioxino[2,3-b]pyridin-8-yl)-N-ethylimidazo[1,2-c]pyrimidine-2-carboxamide] |
| < 0.01 | < 0.01 | Cc1ncoc1-c1c(-c2cccc(C#N)c2)nc(N)n2nc(Cc3ncccc3CO)nc12 [Example 91, 3-(5-Amino-2-((3-(hydroxymethyl)pyridin-2-yl)methyl)-8-(4-methyloxazol-5-yl)-[1,2,4]triazolo[1,5-c]pyrimidin-7-yl)benzonitrile] |
| 0.01 to 0.1 | 0.01 to 0.1 | CCNC(=O)c1nc2c(-c3ccnc(OC)c3)c(-c3cccc(C#N)c3)nc(N)n2c1C [Example 18, 5-Amino-7-(3-cyanophenyl)-N-ethyl-8-(2-methoxypyridin-4-yl)-3-methylimidazo[1,2-c]pyrimidine-2-carboxamide] |
| < 0.01 | > 1 | CCNC(=O)c1nc2c(-c3cc(C)nc(C)c3)c(-c3ccccc3)nc(N)n2c1C#N [Example 21, 5-Amino-3-cyano-8-(2,6-dimethylpyridin-4-yl)-N-ethyl-7-phenylimidazo[1,2-c]pyrimidine-2-carboxamide] |
| < 0.01 | 0.01 to 0.1 | CCn1nccc1-c1c(-c2cccc(C#N)c2)nc(N)n2nc(Cc3ncccc3OC)nc12 [Example 53, 3-(5-Amino-8-(1-ethyl-1H-pyrazol-5-yl)-2-((3-methoxypyridin-2-yl)methyl)-[1,2,4]triazolo[1,5-c]pyrimidin-7-yl)benzonitrile] |
| < 0.01 | < 0.01 | Cc1cccc(COc2nc3c(-c4ccncn4)c(-c4cccc(C#N)c4)nc(N)n3n2)n1 [Example 95, 3-(5-Amino-2-((6-methylpyridin-2-yl)methoxy)-8-(pyrimidin-4-yl)-[1,2,4]triazolo[1,5-c]pyrimidin-7-yl)benzonitrile] |
| < 0.01 | 0.1 to 1 | CCn1nccc1-c1c(-c2cccc(C#N)c2)nc(N)n2nc(C3(c4ccccc4)CC3)nc12 [Example 67, 3-(5-Amino-8-(1-ethyl-1H-pyrazol-5-yl)-2-(1-phenylcyclopropyl)-[1,2,4]triazolo[1,5-c]pyrimidin-7-yl)benzonitrile] |
| < 0.01 | 0.01 to 0.1 | CCNC(=O)c1cn2c(N)nc(-c3cccc(C#N)c3)c(-c3ccncn3)c2n1 [Example 38, 5-Amino-7-(3-cyanophenyl)-N-ethyl-8-(pyrimidin-4-yl)imidazo[1,2-c]pyrimidine-2-carboxamide] |
| < 0.01 | < 0.01 | N#Cc1cccc(-c2nc(N)n3nc([C@H](O)c4ccccc4)nc3c2-c2ccncn2)c1 [Example 65, (R)-3-(5-amino-2-(hydroxy(phenyl)methyl)-8-(pyrimidin-4-yl)-[1,2,4]triazolo[1,5-c]pyrimidin-7-yl)benzonitrile] |
| < 0.01 | < 0.01 | CCn1nccc1-c1c(-c2cccc(C#N)c2)nc(N)n2nc(Cc3ncccc3F)nc12 [Example 52, 3-(5-Amino-8-(1-ethyl-1H-pyrazol-5-yl)-2-((3-fluoropyridin-2-yl)methyl)-[1,2,4]triazolo[1,5-c]pyrimidin-7-yl)benzonitrile] |
| < 0.01 | < 0.01 | Cc1cccnc1COc1nc2c(-c3ccncn3)c(-c3cccc(C#N)c3)nc(N)n2n1 [Example 94, 3-(5-Amino-2-((3-methylpyridin-2-yl)methoxy)-8-(pyrimidin-4-yl)-[1,2,4]triazolo[1,5-c]pyrimidin-7-yl)benzonitrile] |
| < 0.01 | < 0.01 | Cc1nc(CO)c(-c2c(-c3cccc(C#N)c3)nc(N)n3nc(Cc4ncccc4F)nc23)o1 [Example 85, 3-(5-Amino-2-((3-fluoropyridin-2-yl)methyl)-8-(4-(hydroxymethyl)-2-methyloxazol-5-yl)-[1,2,4]triazolo[1,5-c]pyrimidin-7-yl)benzonitrile] |
| < 0.01 | 0.01 to 0.1 | CCNC(=O)c1nc2c(-c3ccnc(OC)c3)c(-c3cccc(C#N)c3)nc(N)n2c1OCCO [Example 17, 5-Amino-7-(3-cyanophenyl)-JV-ethyl-3-(2-hydroxyethoxy)-8-(2-methoxypyridin-4-yl)imidazo[1,2-c]pyrimidine-2-carboxamide] |
| < 0.01 | 0.1 to 1 | CCNC(=O)c1cn2c(N)nc(-c3ccccc3)c(C3=CCN(C(N)=O)CC3)c2n1 [Example 15, 5-Amino-8-(1-carbamoyl-1,2,3,6-tetrahydropyridin-4-yl)-N-ethyl-7-phenylimidazo[1,2-c]pyrimidine-2-carboxamide] |
| < 0.01 | < 0.01 | CCn1nccc1-c1c(-c2cccc(C#N)c2)nc(N)n2nc(Cc3ccccn3)nc12 [Example 42, 3-(5-Amino-8-(1-ethyl-1H-pyrazol-5-yl)-2-(pyridin-2-ylmethyl)-[1,2,4]triazolo[1,5-c]pyrimidin-7-yl)benzonitrile] |
| < 0.01 | < 0.01 | Cn1cc(-c2ccccc2Cc2nc3c(-c4ccncn4)c(-c4cccc(C#N)c4)nc(N)n3n2)cn1 [Example 54, 3-(5-Amino-2-(2-(1-methyl-1H-pyrazol-4-yl)benzyl)-8-(pyrimidin-4-yl)-[1,2,4]triazolo[1,5-c]pyrimidin-7-yl)benzonitrile] |
| 0.01 to 0.1 | 0.01 to 0.1 | Nc1nc(-c2ccncc2)c(-c2ccncc2)c2nccn12 [Example 5, 7,8-Di(pyridin-4-yl)imidazo[1,2-c]pyrimidin-5-amine] |
| < 0.01 | < 0.01 | COc1cccc(-c2nc(N)n3ccnc3c2-c2ccncc2)c1 [Example 4, 7-(3-Methoxyphenyl)-8-(pyridin-4-yl)imidazo[1,2-c]pyrimidin-5-amine] |
| < 0.01 | 0.01 to 0.1 | COc1cc(-c2c(-c3cccc(C#N)c3)nc(N)n3nc(Cc4ccccn4)nc23)cc(C)n1 [Example 59, 3-(5-Amino-8-(2-methoxy-6-methylpyridin-4-yl)-2-(pyridin-2-ylmethyl)-[1,2,4]triazolo[1,5-c]pyrimidin-7-yl)benzonitrile] |
| < 0.01 | < 0.01 | Cc1ncoc1-c1c(-c2cccc(C#N)c2)nc(N)n2nc(Cc3ccccn3)nc12 [Example 61, 3-(5-Amino-8-(4-methyloxazol-5-yl)-2-(pyridin-2-ylmethyl)-[1,2,4]triazolo[1,5-c]pyrimidin-7-yl)benzonitrile] |
| < 0.01 | < 0.01 | CCCn1nccc1-c1c(-c2cccc(C#N)c2)nc(N)n2cc(C(=O)NCC)nc12 [Example 37, 5-Amino-7-(3-cyanophenyl)-N-ethyl-8-(1-propyl-1H-pyrazol-5-yl)imidazo[1,2-c]pyrimidine-2-carboxamide] |
| < 0.01 | < 0.01 | Cc1nc(CO)c(-c2c(-c3cccc(C#N)c3)nc(N)n3nc(Cc4ccccn4)nc23)o1 [Example 62, 3-(5-Amino-8-(4-(hydroxymethyl)-2-methyloxazol-5-yl)-2-(pyridin-2-ylmethyl)-[1,2,4]triazolo[1,5-c]pyrimidin-7-yl)benzonitrile] |
| 0.01 to 0.1 | 0.01 to 0.1 | Nc1nc(-c2ccccc2F)c(-c2ccncc2)c2nccn12 [Example 7, 7-(2-Fluorophenyl)-8-(pyridin-4-yl)imidazo[1,2-c]pyrimidin-5-amine] |
| < 0.01 | < 0.01 | CCNC(=O)c1cn2c(N)nc(-c3cccc(C#N)c3)c(-c3ccncc3OC)c2n1 [Example 30, 5-Amino-7-(3-cyanophenyl)-N-ethyl-8-(3-methoxypyridin-4-yl)imidazo[1,2-c]pyrimidine-2-carboxamide] |
| < 0.01 | < 0.01 | N#Cc1cccc(-c2nc(N)n3nc(C(NCCO)c4ccccc4)nc3c2-c2ccncc2)c1 (stereo not shown) [Example 47, 3-(5-Amino-2-((2-hydroxyethylamino)(phenyl)methyl)-8-(pyridin-4-yl)-[1,2,4]triazolo[1,5-c]pyrimidin-7-yl)benzonitrile] |
| < 0.01 | < 0.01 | CCCn1nccc1-c1c(-c2cccc(C#N)c2)nc(N)n2nc(Cc3ccccn3)nc12 [Example 43, 3-(5-Amino-8-(1-propyl-1H-pyrazol-5-yl)-2-(pyridin-2-ylmethyl)-[1,2,4]triazolo[1,5-c]pyrimidin-7-yl)benzonitrile] |
| < 0.01 | < 0.01 | CCNC(=O)c1cn2c(N)nc(-c3cccc(C#N)c3)c(-c3ccnn3CC)c2n1 [Example 35, 5-Amino-7-(3-cyanophenyl)-N-ethyl-8-(1-ethyl-1H-pyrazol-5-yl)imidazo[1,2-c]pyrimidine-2-carboxamide] |
| < 0.01 | < 0.01 | CCNC(=O)c1cn2c(N)nc(-c3cccc(C#N)c3)c(-c3ccncc3)c2n1 [Example 26, 5-Amino-7-(3-cyanophenyl)-N-ethyl-8-(pyridin-4-yl)imidazo[1,2-c]pyrimidine-2-carboxamide] |
| < 0.01 | 0.01 to 0.1 | N#Cc1cccc(-c2nc(N)n3nc(Cc4c(F)cccc4CN4CCC(C(=O)O)CC4)nc3c2-c2ccncn2)c1 [Example 73, 1-(2-((5-Amino-7-(3-cyanophenyl)-8-(pyrimidin-4-yl)-[1,2,4]triazolo[1,5-c]pyrimidin-2-yl)methyl)-3-fluorobenzyl)piperidine-4-carboxylic acid] |
